The text below walks through data of BindingDB's records for patent US11591342 (Suzhou Sinovent Pharmaceuticals, 2023).

The experiment concerns the target Autotaxin (Homo sapiens, UniProt Q13822). Briefly: Bioactivity Assay. The method, then:
Preparation and Treatment. Stock Solution Preparation. A 10 mM DMSO stock solution was formulated for each compound. A 30 mM DMSO stock solution was formulated for positive control HA130. Preservation: The DMSO stock solutions were stored at room temperature in a desiccator for a short period of time or at −20° C. for a long period of time. Preparation All compounds were serially 3-fold diluted in DMSO from 10 μM to the 10th concentration.A 1000× positive control (10 mM, HA130) and a 1000× negative control (100% DMSO) were prepared. The plates were shaken for 5 min. Preparation of 1× Reaction Buffer:>5× reaction buffer and cold water were mixed well in a volume ratio of 1:4. Preparation of 20 U/mL Choline Oxidase Stock Solution:1 tube of choline oxide in a kit was dissolved in 1× reaction buffer. The aliquots were frozen at −20° C. Preparation of 200 U/mL Horseradish Peroxidase (HRP) Stock Solution:1 tube of HRP in a kit was dissolved in 1 mL of 1× reaction buffer. The aliquots were frozen at −20° C. Preparation of 20 mM Amplex Red Reagent (for Detection) Stock Solution Amplex Red reagent and DMSO were equilibrated at room temperature.

Broadly, the IC50 is the concentration that gives 50% inhibition. A low value points to higher potency. The compound `CCc1nn2ccc(N3CCN(CC(=O)N4CC(O)C4)CC3)nc2c1N(C)c1nc(-c2ccc(F)cc2)c(C#N)s1` [US11591342, Compound S-0041] registered a 50% inhibitory concentration (IC50) of 39 nM.
Next, `CCn1nc2ncc(N3CCN(CC(=O)N4CC(O)C4)CC3)cc2c1N(C)c1nc(-c2ccc(F)cc2)c(C#N)s1` [US11591342, Compound S-0043]: 648 nM; `CCn1nc2cnc(N3CCN(CC(=O)N4CC(O)C4)CC3)cc2c1N(C)c1nc(-c2ccc(F)cc2)c(C#N)s1` [US11591342, Compound S-0044]: 5530 nM.
